Assay [1] relates to Mus musculus. As to the kind of experiment: Antagonistic activity against scopolamine-induced behavioral deficits in mice by subcutaneous administration at a concentration of 1.25 mg/kg. In kind it is functional.
The test system of assay [2] is Mus musculus. Put plainly: Antagonistic activity against scopolamine-induced behavioral deficits in mice by subcutaneous administration at a concentration of 2.5 mg/kg. The class given is functional.
Assay [3] deals with Mus musculus. As to the kind of experiment: Antagonistic activity against scopolamine-induced behavioral deficits in mice by subcutaneous administration at a concentration of 0.63 mg/kg. In kind it is functional.
Assay [4] deals with Mus musculus. Put plainly: Evaluated for the prevention of TBZ ptosis by intraperitoneal administration in mice. To be noted: ip. The class given is functional.
Assay [5] has as its target Muscarinic acetylcholine receptor. As to the kind of experiment: Inhibition of radioligand [3H]QNB binding (competitive inhibition) to muscarinic acetylcholine receptor in the rat forebrain in the absence of zinc.
Assay [6] shares this target. Put plainly: Inhibition of radioligand [3H]QNB binding to muscarinic acetylcholine receptor in the rat forebrain in the presence of zinc.
In assay [7] the test system is Mus musculus. Put plainly: Antagonistic activity against scopolamine-induced behavioral deficits in mice by subcutaneous administration at a concentration of 5.0 mg/kg. In kind it is functional.
The test system of assay [8] is Mus musculus. As to the kind of experiment: Antagonistic activity against scopolamine-induced behavioral deficits in mice by subcutaneous administration at a concentration of 0.16 mg/kg. In kind it is functional.
In assay [9] the test system is Mus musculus. As to the kind of experiment: Antagonistic activity against scopolamine-induced behavioral deficits in mice by subcutaneous administration at a concentration of 0.02 mg/kg. The class given is functional.
Assay [10] concerns Mus musculus. Put plainly: Antagonistic activity against scopolamine-induced behavioral deficits in mice by subcutaneous administration at a concentration of 0.31 mg/kg. In kind it is functional.
Assay [11] relates to Mus musculus. As to the kind of experiment: Antagonistic activity against scopolamine-induced behavioral deficits in mice by subcutaneous administration at a concentration of 0.04 mg/kg. In kind it is functional.
Assay [12] relates to Mus musculus. As to the kind of experiment: (§1) Antagonistic activity against scopolamine-induced behavioral deficits in mice by subcutaneous administration at a concentration of 5 mg/kg. In kind it is functional.
The subject of assay [13] is Mus musculus. Described as §1. In kind it is functional. This is another data set of the same source.

Regarding `CCN(c1ccncc1)n1cccc1Cl`, the Response in [1] was determined as 36%; in assay [2], 27%; in [3], 20%. In assay [4], this molecule came in with a median effective dose (ED50) of more than 20 mg/kg. Also, the IC50 came to 5.4 µM in assay [5] and 33 µM in assay [6].

As for `CN(c1ccncc1)n1cccc1/C=C/c1ccccc1`, the values for the Response in [2] and in assay [7] were 20% and 33%, respectively. In assay [4], this molecule returned an ED50 of more than 20 mg/kg. The IC50 in [5] was 1.6 µM; in assay [6] it was 17 µM.

As for `C#CCN(c1ccncc1)n1cccc1`, the Response in [8] is listed as 47%; in [9], 20%; in assay [10] it was 27%; in assay [11] it was 27%. The molecule also had an ED50 in assay [4] of more than 20 mg/kg. In addition, the IC50 is 9 µM in assay [5] and 76.4 µM in assay [6].

For `CN(c1ccncc1)n1cccc1C#N`, the Response worked out at 40% in assay [1] and 20% in assay [7]. In addition, the ED50 in assay [4] was more than 20 mg/kg. Besides, the values for the IC50 in assay [5] and in assay [6] were 24 µM and 295 µM, respectively.

In the case of `CC(O)c1ccn(N(C)c2ccncc2)c1` (centres undefined), the Response in assay [8] was determined as 20%; in assay [1], 27%; in assay [10], 20%. This molecule also displayed an ED50 in assay [4] of 10 mg/kg. Moreover, the IC50 in [5] was determined as 11 µM; in assay [6] it was 24 µM.

As for `CCCN(c1ccncc1)n1cccc1C=O`, the ED50 in assay [4] was more than 20 mg/kg. In addition, the IC50 in assay [5] was determined as 14 µM; in [6], 51 µM.

As to `CCCN(c1ccncc1)n1cccc1`, the Response in assay [8] was determined as 33%; in assay [2], 27%; in assay [3], 27%. This molecule yielded an ED50 in [4] of more than 20 mg/kg. Also, the IC50 in assay [5] came out at 6.5 µM; in assay [6], 21.5 µM.

`c1ccn(Nc2ccncc2)c1`: the Response in [2] was determined as 47%; in assay [3], 21%; in [10] it was 21%; in [12], 36%. Besides, in [4], the ED50 is more than 20 mg/kg. Further, the IC50 in assay [5] was 43 µM; in [6], 184 µM.

Consider `CN(c1ccncc1)n1cccc1`, for which the Response worked out at 29% in assay [13] and 1% in assay [12]. This molecule also showed an ED50 in [4] of more than 20 mg/kg. In addition, the IC50 in assay [5] is 13 µM; in [6] it was 70 µM.

Take `CN(c1ccncc1)n1cccc1C=O`: the Response in [8] was determined as 50%; in [1], 60%; in assay [2], 50%; in [3] it was 27%; in [10], 53%; in assay [7], 31%. Also, the ED50 in [4] is more than 20 mg/kg. Moreover, the IC50 in assay [5] was 24 µM; in assay [6], 52 µM.

For the molecule `CCN(c1ccncc1)n1cccc1`, in assay [4], the ED50 was more than 20 mg/kg. For the same molecule, the IC50 in [5] stood at 9.5 µM; in assay [6], 120 µM.

For `Clc1cccn1Nc1ccncc1`, the ED50 in assay [4] is more than 20 mg/kg. Also, the IC50 was 13 µM in [5] and 76.2 µM in [6].

As for `CN(c1ccncc1)n1cccc1Cl`, the ED50 in assay [4] is more than 20 mg/kg. Further, the IC50 in assay [5] stood at 6.9 µM; in assay [6] it was 43 µM.

Turning to `CCc1cccn1N(C)c1ccncc1`, the Response came to 20% in [3] and 27% in assay [7]. Further, in [4], the ED50 was more than 20 mg/kg. The IC50 is 6.4 µM in [5] and 22 µM in [6].

Regarding `CN(c1ccncc1)n1ccc(C=O)c1`, the Response in assay [1] is reported as 29%; in assay [3], 33%; in assay [10] it was 20%; in [7] it was 47%. The same molecule showed an ED50 in [4] of more than 20 mg/kg. Further, the IC50 in [5] was 33 µM; in assay [6], 185 µM.

In the case of `O=Cc1cccn1Nc1ccncc1`, the values for the Response in [8], in assay [3] and in assay [10] were 20%, 43% and 27%, respectively. The ED50 in assay [4] was more than 20 mg/kg. Moreover, the half-maximal inhibitory concentration (IC50) amounted to 86 µM in assay [5] and 721 µM in assay [6].

For `CN(c1ccncc1)n1cccc1CO`, the ED50 in assay [4] is more than 20 mg/kg. In addition, the concentration for half-maximal inhibition (IC50) amounted to 26 µM in assay [5] and 39 µM in assay [6].

`CCCN(c1ccncc1)n1ccc(C=O)c1` gave an ED50 in [4] of more than 20 mg/kg. Besides, the IC50 is 11 µM in [5] and 138 µM in assay [6].

Molecule `CCCN(c1ccncc1)n1cccc1Cl` had a Response in [2] of 27%. The same molecule showed an ED50 in assay [4] of more than 20 mg/kg. The IC50 in assay [5] is 2.6 µM; in assay [6], 8.6 µM.

In assay [4], `CN(c1ccncc1)n1cccc1CCc1ccccc1` registered an ED50 of more than 20 mg/kg. The IC50 amounted to 3 µM in assay [5] and 8.1 µM in assay [6]. The molecule further had a Response in assay [10] of 33%.

For `CC(=O)N(c1ccncc1)n1cccc1`, in [6], the IC50 was more than 1000 µM.

With `C=CCN(c1ccncc1)n1cccc1`, the Response in [8] and in assay [3] was 20% in each case. Further, in assay [4], the ED50 is more than 20 mg/kg. The IC50 in assay [5] came to 6.9 µM; in assay [6], 27 µM.

Consider `c1ccc(CN(c2ccncc2)n2cccc2)cc1`, for which the Response in assay [8] came out at 20%. Moreover, the ED50 in assay [4] was more than 20 mg/kg. The values for the IC50 in assay [5] and in assay [6] were 3.5 µM and 13.5 µM, respectively.

For `CC(O)c1cccn1N(C)c1ccncc1` (centres undefined), the ED50 in assay [4] is more than 20 mg/kg. For the same molecule, the IC50 amounted to 23 µM in assay [5] and 173 µM in assay [6].

The molecule `CCCCN(c1ccncc1)n1cccc1` displayed a Response in assay [3] of 20%. The molecule further showed an ED50 in [4] of more than 20 mg/kg. The figures for the IC50 in assay [5] and in assay [6] were 4 µM and 12.5 µM, respectively.

For `CN(C)CCC=C1c2ccccc2CCc2ccccc21` [AMITRIPTYLINE], it took a dose of 1.5 mg/kg to reach the 50% effect level in assay [4] (ED50). Further, the IC50 in assay [6] turned out to be 0.3 µM.

Usually ED50 stands for the midpoint of the dose-response relation. The low end stands for greater potency, the high end for weaker potency. Usually IC50 stands for the concentration at which inhibition is half-maximal.
